Legend:
Type in all cases: in vivo
[1] = test system: upland rice (Oryza sp., var. Tebonnet, RICE); assay: Pre-emerge test, crop safety; settings: pre-emerge, rated 14 days after application, 0 = no damage, 100 = complete death
Summary of the method: (§1)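 Herbicidal damage is scored 0 (none) to 100 (complete plant death) two weeks after a simulated field spray. Rates span 15–1000 g ai/ha, delivered in acetone at 187 l/ha. For post-emergence treatments, plants have 2–3 leaves and the spray carries 0.25% v/v non-ionic surfactant.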

[2] = test system: field corn (Zea mays L., var. Dekalb 535, CORN); assay: Pre-emerge test, crop safety; settings: pre-emerge, rated 14 days after application, 0 = no damage, 100 = complete death
Summary of the method: as §1

[3] = test system: redroot pigweed (Amaranthus retroflexus, AMARE); assay: Pre-emerge test, greenhouse herbicide activity screening; settings: pre-emerge, rated 14 days after application, 0 = no damage, 100 = complete death
Summary of the method: as §1

[4] = test system: common ragweed (Ambrosia artemisizfolia L., AMBEL); assay: Post-emerge test, greenhouse herbicide activity screening; settings: phytotoxicity rating 0-100 (0 no damage, 100 complete death), 14 days after application
Summary of the method: (§2)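 Compounds in acetone were track-sprayed at 15-1000 g ai/ha (187 l/ha) on sandy loam pots: pre-emerge one day after seeding, post-emerge at 2-3 leaf stage with 0.25% v/v non-ionic surfactant. Phytotoxicity was rated 14 days later on a 0 (no damage) to 100 (complete death) scale.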

[5] = test system: ivyleaf morningglory (Ipomoea hederacea, IPOHE); assay: as above; settings: phytotoxicity rating 0-100 (0 no damage, 100 complete death), 14 days after application
Summary of the method: as §2

[6] = test system: barnyardgrass (Echinochloa crus-galli, ECHCG); assay: as above; settings: phytotoxicity rating 0-100 (0 no damage, 100 complete death), 14 days after application
Summary of the method: as §2

[7] = test system: green foxtail (Setaria viridis, SETVI); assay: as above; settings: phytotoxicity rating 0-100 (0 no damage, 100 complete death), 14 days after application
Summary of the method: as §2

[8] = test system: large crabgrass (Digitaria sanguinalis, DIGSA); assay: as above; settings: phytotoxicity rating 0-100 (0 no damage, 100 complete death), 14 days after application
Summary of the method: as §2

[9] = test system: redroot pigweed (Amaranthus retroflexus, AMARE); assay: as above; settings: phytotoxicity rating 0-100 (0 no damage, 100 complete death), 14 days after application
Summary of the method: as §2

[10] = test system: johnsongrass (Sorghum halepense, SORHA); assay: as above; settings: phytotoxicity rating 0-100 (0 no damage, 100 complete death), 14 days after application
Summary of the method: as §2

[11] = test system: velvetleaf (Abutilon theophrasti, ABUTH); assay: as above; settings: phytotoxicity rating 0-100 (0 no damage, 100 complete death), 14 days after application
Summary of the method: as §2

[12] = test system: lambsquarters (Chenopodium album, CHEAL); assay: as above; settings: phytotoxicity rating 0-100 (0 no damage, 100 complete death), 14 days after application
Summary of the method: as §2

[13] = test system: sicklepod (Cassia obtusifolia, CASOB); assay: as above; settings: phytotoxicity rating 0-100 (0 no damage, 100 complete death), 14 days after application
Summary of the method: as §2

[14] = test system: upland rice (Oryza sp., var. Tebonnet, RICE); assay: Post-emerge test, crop safety; settings: phytotoxicity rating 0-100 (0 no damage, 100 complete death), 14 days after application
Summary of the method: as §2

[15] = test system: field corn (Zea mays L., var. Dekalb 535, CORN); assay: Post-emerge test, crop safety; settings: phytotoxicity rating 0-100 (0 no damage, 100 complete death), 14 days after application
Summary of the method: as §2

[16] = test system: ivyleaf morningglory (Ipomoea hederacea, IPOHE); assay: Pre-emerge test, greenhouse herbicide activity screening; settings: pre-emerge, rated 14 days after application, 0 = no damage, 100 = complete death
Summary of the method: as §2

[17] = test system: barnyardgrass (Echinochloa crus-galli, ECHCG); assay: as above; settings: pre-emerge, rated 14 days after application, 0 = no damage, 100 = complete death
Summary of the method: as §2

[18] = test system: green foxtail (Setaria viridis, SETVI); assay: as above; settings: pre-emerge, rated 14 days after application, 0 = no damage, 100 = complete death
Summary of the method: as §2

[19] = test system: large crabgrass (Digitaria sanguinalis, DIGSA); assay: as above; settings: pre-emerge, rated 14 days after application, 0 = no damage, 100 = complete death
Summary of the method: as §2

[20] = test system: johnsongrass (Sorghum halepense, SORHA); assay: as above; settings: pre-emerge, rated 14 days after application, 0 = no damage, 100 = complete death
Summary of the method: as §2

[21] = test system: velvetleaf (Abutilon theophrasti, ABUTH); assay: as above; settings: pre-emerge, rated 14 days after application, 0 = no damage, 100 = complete death
Summary of the method: as §2

[22] = test system: lambsquarters (Chenopodium album, CHEAL); assay: as above; settings: pre-emerge, rated 14 days after application, 0 = no damage, 100 = complete death
Summary of the method: as §2

[23] = test system: sicklepod (Cassia obtusifolia, CASOB); assay: as above; settings: pre-emerge, rated 14 days after application, 0 = no damage, 100 = complete death
Summary of the method: as §2

CC(C)Oc1c(Cl)cc(F)c(-n2c(=O)cc(C(F)(F)F)n(C)c2=O)c1N [Compound 1-63]
Pre-emerge crop damage RICE (phytotoxicity rating, scale 0-100) ([1]; 63 g ai/ha): 80 | Pre-emerge crop damage RICE (phytotoxicity rating, scale 0-100) ([1]; 250 g ai/ha): 95 | Pre-emerge crop damage CORN (phytotoxicity rating, scale 0-100) ([2]; 63 g ai/ha): 10 | Pre-emerge crop damage CORN (phytotoxicity rating, scale 0-100) ([2]; 250 g ai/ha): 90 | Pre-emerge Herbicidal Activity AMARE (phytotoxicity rating, scale 0-100) ([3]; 63 g ai/ha): 100 | Pre-emerge Herbicidal Activity AMARE (phytotoxicity rating, scale 0-100) ([3]; 250 g ai/ha): 100 | Post-emerge Herbicidal Activity AMBEL ([4]; 63 g ai/ha): 0 | Post-emerge Herbicidal Activity AMBEL ([4]; 250 g ai/ha): 50 | Post-emerge Herbicidal Activity IPOHE ([5]; 63 g ai/ha): 95 | Post-emerge Herbicidal Activity IPOHE ([5]; 250 g ai/ha): 90 | Post-emerge Herbicidal Activity ECHCG ([6]; 63 g ai/ha): 0 | Post-emerge Herbicidal Activity ECHCG ([6]; 250 g ai/ha): 30 | Post-emerge Herbicidal Activity SETVI ([7]; 63 g ai/ha): 0 | Post-emerge Herbicidal Activity SETVI ([7]; 250 g ai/ha): 20 | Post-emerge Herbicidal Activity DIGSA ([8]; 63 g ai/ha): 0 | Post-emerge Herbicidal Activity DIGSA ([8]; 250 g ai/ha): 0 | Post-emerge Herbicidal Activity AMARE ([9]; 63 g ai/ha): 10 | Post-emerge Herbicidal Activity AMARE ([9]; 250 g ai/ha): 10 | Post-emerge Herbicidal Activity SORHA ([10]; 63 g ai/ha): 0 | Post-emerge Herbicidal Activity SORHA ([10]; 250 g ai/ha): 0 | Post-emerge Herbicidal Activity ABUTH ([11]; 63 g ai/ha): 70 | Post-emerge Herbicidal Activity ABUTH ([11]; 250 g ai/ha): 100 | Post-emerge Herbicidal Activity CHEAL ([12]; 63 g ai/ha): 20 | Post-emerge Herbicidal Activity CHEAL ([12]; 250 g ai/ha): 50 | Post-emerge Herbicidal Activity CASOB ([13]; 63 g ai/ha): 0 | Post-emerge Herbicidal Activity CASOB ([13]; 250 g ai/ha): 0 | Post-emerge Herbicidal Activity RICE (crop damage) ([14]; 63 g ai/ha): 10 | Post-emerge Herbicidal Activity RICE (crop damage) ([14]; 250 g ai/ha): 40 | Post-emerge Herbicidal Activity CORN (crop damage) ([15]; 63 g ai/ha): 0 | Post-emerge Herbicidal Activity CORN (crop damage) ([15]; 250 g ai/ha): 0 | Pre-emerge Herbicidal Activity IPOHE (phytotoxicity rating, scale 0-100) ([16]; 63 g ai/ha): 20 | Pre-emerge Herbicidal Activity IPOHE (phytotoxicity rating, scale 0-100) ([16]; 250 g ai/ha): 95 | Pre-emerge Herbicidal Activity ECHCG (phytotoxicity rating, scale 0-100) ([17]; 63 g ai/ha): 40 | Pre-emerge Herbicidal Activity ECHCG (phytotoxicity rating, scale 0-100) ([17]; 250 g ai/ha): 100 | Pre-emerge Herbicidal Activity SETVI (phytotoxicity rating, scale 0-100) ([18]; 63 g ai/ha): 95 | Pre-emerge Herbicidal Activity SETVI (phytotoxicity rating, scale 0-100) ([18]; 250 g ai/ha): 100 | Pre-emerge Herbicidal Activity DIGSA (phytotoxicity rating, scale 0-100) ([19]; 63 g ai/ha): 80 | Pre-emerge Herbicidal Activity DIGSA (phytotoxicity rating, scale 0-100) ([19]; 250 g ai/ha): 100 | Pre-emerge Herbicidal Activity SORHA (phytotoxicity rating, scale 0-100) ([20]; 63 g ai/ha): 50 | Pre-emerge Herbicidal Activity SORHA (phytotoxicity rating, scale 0-100) ([20]; 250 g ai/ha): 99 | Pre-emerge Herbicidal Activity ABUTH (phytotoxicity rating, scale 0-100) ([21]; 63 g ai/ha): 100 | Pre-emerge Herbicidal Activity ABUTH (phytotoxicity rating, scale 0-100) ([21]; 250 g ai/ha): 100 | Pre-emerge Herbicidal Activity CHEAL (phytotoxicity rating, scale 0-100) ([22]; 63 g ai/ha): 100 | Pre-emerge Herbicidal Activity CHEAL (phytotoxicity rating, scale 0-100) ([22]; 250 g ai/ha): 100 | Pre-emerge Herbicidal Activity CASOB (phytotoxicity rating, scale 0-100) ([23]; 63 g ai/ha): 20 | Pre-emerge Herbicidal Activity CASOB (phytotoxicity rating, scale 0-100) ([23]; 250 g ai/ha): 90

Reference: patent US6355799B1, “Substituted benzene compounds, process for their preparation, and herbicidal and defoliant compositions containing them” (ISK Americas Incorporated, priority 1997, dated 2002)
